Laboratory results as given in ChEMBL document CHEMBL1201862, “PubChem BioAssay data set” (2004).
The source made the active and inactive calls.

Legend:
Coagulation factor XII = molecular target: T1, Coagulation factor XII (Homo sapiens, UniProt P00748); assay type: functional;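 note: activated factor XIIa alpha cleaving a fluorogenic AMC peptide substrate; inhibitor potency from loss of enzyme activity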
T1 sequence (P00748 whole entry): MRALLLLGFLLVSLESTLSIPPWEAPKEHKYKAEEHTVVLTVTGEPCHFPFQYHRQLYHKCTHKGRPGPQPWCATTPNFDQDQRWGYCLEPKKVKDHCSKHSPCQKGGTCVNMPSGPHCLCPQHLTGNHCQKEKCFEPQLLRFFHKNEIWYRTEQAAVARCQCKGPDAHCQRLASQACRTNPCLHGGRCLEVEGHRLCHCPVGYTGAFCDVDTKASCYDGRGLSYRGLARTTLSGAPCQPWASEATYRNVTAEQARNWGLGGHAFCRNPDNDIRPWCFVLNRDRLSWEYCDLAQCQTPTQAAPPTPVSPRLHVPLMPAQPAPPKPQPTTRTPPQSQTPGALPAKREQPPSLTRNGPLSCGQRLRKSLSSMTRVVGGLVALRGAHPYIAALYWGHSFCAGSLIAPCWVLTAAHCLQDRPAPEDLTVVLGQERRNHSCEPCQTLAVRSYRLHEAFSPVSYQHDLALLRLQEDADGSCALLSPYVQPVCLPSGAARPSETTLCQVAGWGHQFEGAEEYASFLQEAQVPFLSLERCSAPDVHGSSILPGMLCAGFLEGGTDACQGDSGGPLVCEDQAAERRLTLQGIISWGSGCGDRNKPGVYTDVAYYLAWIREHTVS

BJ [1] = experiment: cytotoxicity toward BJ-TERT fibroblasts, dose response, cell-based, RAS-independent, luminescence (AID 1933); assay type: functional; settings: Homo sapiens
BJ [2] = experiment: cells; assay type: functional, cell-based; settings: Homo sapiens
BJ [3] = experiment: cytotoxicity toward BJ-TERT-LT-ST fibroblasts, dose response, cell-based, RAS-independent, luminescence (AID 1935); assay type: functional; settings: Homo sapiens;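 note: BJ fibroblasts immortalized with TERT plus LT and ST oncogenes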
[4] = cytotoxicity toward DRD oncogenic fibroblasts, dose response, cell-based, non-viral oncogenic, luminescence (AID 1934); assay type: functional; settings: Homo sapiens
[5] = cytotoxicity in HEK-293T cells, dose response, cytotoxicity control for TCR NF-kB inhibitor project, luminescence, T-cell screen hits (AID 489026); assay type: functional, cell-based;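 note: cells exposed to compound about 14 hours before the viability readout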
[6] = test system: Streptococcus sp. 'group A'; experiment: growth inhibition of control SK(-) GAS strain, dose response, counter-screen for streptokinase expression inhibitor project, luminescence, kanamycin, BacTiterGlo, confirmation (AID 1900); assay type: functional, organism-based
[7] = A Cell Based Secondary Assay To Explore Cytotoxicity of Compounds that Sensitize Mycobacterium Tuberculosis to Beta-Lactam Antibiotics.; assay type: functional
Streptokinase A = molecular target: T2, Streptokinase A (Streptococcus pyogenes serotype M1, UniProt P10520); experiment: S. pyogenes streptokinase expression inhibitors, potency, dose response, plasminogen activation absorbance, OD405 (AID 1914); assay type: functional, Streptococcus pyogenes M1 GAS;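 note: secreted streptokinase activity via plasminogen activation per viability signal from cell pellet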
T2 sequence (P10520 whole entry): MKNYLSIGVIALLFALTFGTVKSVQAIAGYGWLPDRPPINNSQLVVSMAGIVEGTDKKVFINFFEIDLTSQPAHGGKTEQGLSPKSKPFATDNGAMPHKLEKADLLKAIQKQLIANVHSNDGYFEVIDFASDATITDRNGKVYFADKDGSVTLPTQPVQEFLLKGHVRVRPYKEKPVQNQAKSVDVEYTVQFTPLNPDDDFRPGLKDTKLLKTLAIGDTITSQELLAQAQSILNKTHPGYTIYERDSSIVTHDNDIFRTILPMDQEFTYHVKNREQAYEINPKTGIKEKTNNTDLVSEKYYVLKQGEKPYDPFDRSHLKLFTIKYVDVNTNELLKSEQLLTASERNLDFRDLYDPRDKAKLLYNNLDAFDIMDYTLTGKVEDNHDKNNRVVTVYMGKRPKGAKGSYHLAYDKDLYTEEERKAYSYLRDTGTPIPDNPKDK

Streptococcus = experiment: Group A Streptococcus viability loss, dose response, counter-screen for streptokinase expression inhibitor project, luminescence, BacTiterGlo (AID 1915); assay type: functional, organism-based;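 note: potency for reduction of bacterial viability or growth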
[8] = molecular target: T3, Short transient receptor potential channel 4 (Mus musculus, UniProt Q9QUQ5); experiment: mouse TRPC4 channel activators, dose response, cell-based, HEK293 TRPC4/mu-opioid, Fluo-4 calcium (AID 434937); assay type: functional
T3 sequence (Q9QUQ5 whole entry): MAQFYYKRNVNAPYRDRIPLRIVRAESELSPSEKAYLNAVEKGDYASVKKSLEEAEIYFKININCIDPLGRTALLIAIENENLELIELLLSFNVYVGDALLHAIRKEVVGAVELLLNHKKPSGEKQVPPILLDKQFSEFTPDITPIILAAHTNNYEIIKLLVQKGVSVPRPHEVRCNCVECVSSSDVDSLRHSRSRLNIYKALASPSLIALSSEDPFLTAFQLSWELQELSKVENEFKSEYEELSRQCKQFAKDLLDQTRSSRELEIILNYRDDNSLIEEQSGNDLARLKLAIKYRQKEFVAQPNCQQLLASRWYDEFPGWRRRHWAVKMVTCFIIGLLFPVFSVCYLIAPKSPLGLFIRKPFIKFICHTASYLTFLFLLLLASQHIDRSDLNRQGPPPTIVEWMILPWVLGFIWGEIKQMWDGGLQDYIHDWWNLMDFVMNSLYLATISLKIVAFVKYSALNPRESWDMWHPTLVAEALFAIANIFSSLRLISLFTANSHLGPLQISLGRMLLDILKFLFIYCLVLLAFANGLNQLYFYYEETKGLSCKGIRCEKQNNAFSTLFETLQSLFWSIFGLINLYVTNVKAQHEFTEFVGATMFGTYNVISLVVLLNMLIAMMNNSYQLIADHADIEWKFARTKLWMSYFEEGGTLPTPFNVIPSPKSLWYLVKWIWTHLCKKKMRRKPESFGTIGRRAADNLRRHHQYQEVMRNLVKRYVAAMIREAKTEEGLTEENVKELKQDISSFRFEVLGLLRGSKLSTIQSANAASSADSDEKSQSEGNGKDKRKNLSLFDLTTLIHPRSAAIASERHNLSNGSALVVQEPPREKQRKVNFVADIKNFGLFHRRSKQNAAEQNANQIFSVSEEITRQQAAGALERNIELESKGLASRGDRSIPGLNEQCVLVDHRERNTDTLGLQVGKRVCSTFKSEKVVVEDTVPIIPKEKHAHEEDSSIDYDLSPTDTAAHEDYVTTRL

[9] = molecular target: Induced myeloid leukemia cell differentiation protein Mcl-1 (Homo sapiens, UniProt Q07820); assay type: functional
Estrogen receptor = molecular target: T4, Estrogen receptor (Homo sapiens, UniProt P03372);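 note: potency for inhibiting coactivator peptide recruitment to the receptor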
T4 sequence (P03372 whole entry): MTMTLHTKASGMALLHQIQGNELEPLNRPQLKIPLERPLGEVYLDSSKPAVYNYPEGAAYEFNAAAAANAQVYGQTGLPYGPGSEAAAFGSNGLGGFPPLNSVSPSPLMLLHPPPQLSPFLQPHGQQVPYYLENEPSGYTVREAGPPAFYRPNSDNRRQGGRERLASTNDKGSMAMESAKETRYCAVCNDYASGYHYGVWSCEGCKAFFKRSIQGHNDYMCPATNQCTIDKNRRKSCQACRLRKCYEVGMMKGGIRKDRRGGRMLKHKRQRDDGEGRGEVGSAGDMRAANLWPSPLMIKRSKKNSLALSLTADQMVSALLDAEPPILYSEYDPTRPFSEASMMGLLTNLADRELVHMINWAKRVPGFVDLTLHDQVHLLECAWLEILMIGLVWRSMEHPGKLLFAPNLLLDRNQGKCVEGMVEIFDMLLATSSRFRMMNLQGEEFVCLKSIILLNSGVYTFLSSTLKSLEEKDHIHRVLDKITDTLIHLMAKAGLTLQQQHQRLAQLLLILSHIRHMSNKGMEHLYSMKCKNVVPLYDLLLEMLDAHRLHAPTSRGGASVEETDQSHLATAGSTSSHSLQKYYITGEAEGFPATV

[10] = molecular target: T5, Mannose-6-phosphate isomerase (Homo sapiens, UniProt P34949); experiment: human PMI inhibitors, high substrate, primary screen, biochemical, fluorescence intensity, high mannose 6-phosphate (AID 1220)
T5 sequence (P34949 whole entry): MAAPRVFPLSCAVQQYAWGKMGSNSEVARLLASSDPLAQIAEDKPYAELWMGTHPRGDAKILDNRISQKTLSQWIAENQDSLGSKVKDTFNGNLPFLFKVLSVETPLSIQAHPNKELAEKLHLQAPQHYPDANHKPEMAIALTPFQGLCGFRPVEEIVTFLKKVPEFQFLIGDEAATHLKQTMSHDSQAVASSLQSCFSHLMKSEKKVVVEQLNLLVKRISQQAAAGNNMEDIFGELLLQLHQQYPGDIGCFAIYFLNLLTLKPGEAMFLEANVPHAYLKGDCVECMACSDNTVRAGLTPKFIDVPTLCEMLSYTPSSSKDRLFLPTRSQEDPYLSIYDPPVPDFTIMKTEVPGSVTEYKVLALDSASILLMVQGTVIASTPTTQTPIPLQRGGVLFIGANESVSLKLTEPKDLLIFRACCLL

Cytochrome P450 2C19 = Cytochrome P450 2C19 (Homo sapiens, UniProt P33261); experiment: Cytochrome panel assay with activity outcomes. Panel member name: p450-cyp2c19 Compounds with AC50 equal or less than 10 uM are considered active; assay type: functional; settings: read-out: AC50
Cytochrome P450 2C19, sequence (P33261 whole entry): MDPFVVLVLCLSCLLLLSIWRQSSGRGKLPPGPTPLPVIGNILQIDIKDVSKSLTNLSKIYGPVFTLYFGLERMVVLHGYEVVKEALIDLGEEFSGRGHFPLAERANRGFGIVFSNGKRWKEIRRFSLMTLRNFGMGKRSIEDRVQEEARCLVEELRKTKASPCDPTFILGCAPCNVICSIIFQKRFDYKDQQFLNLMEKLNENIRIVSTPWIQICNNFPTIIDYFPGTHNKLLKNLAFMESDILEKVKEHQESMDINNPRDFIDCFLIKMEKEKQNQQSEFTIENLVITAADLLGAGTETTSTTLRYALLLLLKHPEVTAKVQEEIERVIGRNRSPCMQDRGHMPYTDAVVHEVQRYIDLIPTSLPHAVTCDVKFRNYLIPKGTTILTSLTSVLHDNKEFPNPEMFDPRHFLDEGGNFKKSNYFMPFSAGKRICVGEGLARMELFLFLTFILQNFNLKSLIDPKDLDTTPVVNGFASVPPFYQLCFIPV

Induced myeloid leukemia cell differentiation protein Mcl-1, sequence (Q07820 whole entry): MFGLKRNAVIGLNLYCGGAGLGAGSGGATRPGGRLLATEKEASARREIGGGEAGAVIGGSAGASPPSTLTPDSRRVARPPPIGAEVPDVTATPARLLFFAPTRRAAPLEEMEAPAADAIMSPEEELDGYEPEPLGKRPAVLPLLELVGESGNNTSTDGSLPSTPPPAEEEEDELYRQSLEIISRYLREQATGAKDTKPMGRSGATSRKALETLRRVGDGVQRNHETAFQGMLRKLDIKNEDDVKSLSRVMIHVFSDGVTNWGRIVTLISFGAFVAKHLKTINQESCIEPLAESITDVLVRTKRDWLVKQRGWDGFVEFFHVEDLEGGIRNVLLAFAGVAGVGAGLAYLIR

Question: Which IC50 (Coagulation factor XII) does the source give for `CCOc1cc(NC(=O)c2ccc(C)cc2)c(OCC)cc1N=C(S)NCCCN1CCOCC1` here?
Answer: Its IC50 is > 50 µM (inactive).

Question: Which IC50 (Coagulation factor XII) does the source give for `Cc1c(Cl)cccc1Nc1nc(N)nc(CN2CCc3ccccc3C2)n1` here?
Answer: Its IC50 is > 50 µM (inactive).

Question: With `O=C(c1ccccc1-c1ccccc1)N1CCN(c2ccccn2)CC1` as the compound, how does the EC50 (BJ [1]) read?
Answer: Its EC50 is 9.85 µM (active).

Question: What about the EC50 (BJ [2]) of the same compound?
Answer: Its EC50 is 19.9 µM (active).

Question: And the EC50 (BJ [3])?
Answer: The EC50 was 13.9 µM (inconclusive).

Question: And the EC50 [4]?
Answer: The EC50 was 11.4 µM (active).

Question: And the IC50 [5]?
Answer: The IC50 was > 80 µM (inactive).

Question: Which results are given for `CCc1cccc2c(C(=O)COC(=O)/C=C/c3ccc(O)c(OC)c3)c[nH]c12`?
Answer: EC50 [6]: 8.62 µM (active); CC50 [7]: > 40 µM (active); EC50 (Streptokinase A): > 150 µM (not active); EC50 (Streptococcus): 41.1 µM (active)

Question: For `COc1ccc(C(CNC(=O)COc2ccccc2OC)N(C)C)cc1OC` (configuration not stated), which EC50 [8] is on record?
Answer: Its EC50 is 1.19 µM (active).

Question: For `CCOC(=O)C1(Cc2cccc(F)c2)CCN(Cc2cnn(CC)c2C)CC1`, which EC50 [8] is on record?
Answer: Its EC50 is 0.211 µM (active).

Question: Which IC50 [9] does the source give for `c1ccc(CNC2=NN=C(c3cc4ccccc4o3)CS2)cc1` here?
Answer: Its IC50 is 2.66 µM (not active).

Question: With `COc1cc(OC)cc(-c2nnc(NC(=O)CCS(=O)(=O)c3ccc(C)cc3)o2)c1` as the compound, how does the CC50 [7] read?
Answer: The CC50 was 32.4 µM (active).

Question: Which IC50 [5] does the source give for `CSC1=NC(c2ccc(C)cc2)=NC(C(Cl)(Cl)Cl)N1` (configuration not stated) here?
Answer: The IC50 was > 80 µM (inactive).

Question: With `COc1ccc(CCN(C)CCC(=O)Nc2c(C)cc(C)cc2C)cc1OC` as the compound, how does the EC50 [8] read?
Answer: The EC50 was 4.73 µM (active).

Question: What does the source list for `CCOC(=O)c1c(C)oc2c1c(/C=N/C1CCS(=O)(=O)C1)c(O)c1ccccc12` (configuration not stated)?
Answer: IC50 (Estrogen receptor): 16 µM (active); IC50 [10]: > 50 µM (not active); AC50 (Cytochrome P450 2C19): 1.78 µM (inconclusive)

Question: For `Cc1ccc(-c2nnc(S)n2/N=C/C=C\c2ccccc2[N+](=O)[O-])cc1`, which IC50 (Estrogen receptor) is on record?
Answer: The IC50 was 7.32 µM (active).

Question: Which IC50 [9] does the source give for `Cn1cc(C(=O)N/N=C/c2ccc([N+](=O)[O-])cc2)c2ccccc21` here?
Answer: Its IC50 is 1.94 µM (active).
